Source: the supplement of paper PMC10307832

Tests used:
Test in all cases: relative viability (nuclei count vs DMSO), 5 days (fraction); higher = more cells survive
Pemetrexed + Decitabine = compound: Nc1nc2[nH]cc(CCc3ccc(C(=O)N[C@@H](CCC(=O)O)C(=O)O)cc3)c2c(=O)[nH]1 [Pemetrexed] + Nc1ncn([C@H]2C[C@H](O)[C@@H](CO)O2)c(=O)n1 [Decitabine] (partner 2 µM)
Summary of the method: (§1)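 A single step with final 0.05% Triton X-100, 1% formaldehyde and 1 ug/ml Hoechst fixed the cells and stained nuclei 5 days after treatment. Lung cancer cell lines in 1536-well plates had been treated by pin tool the day after seeding with one drug alone or a fixed anchor-drug dose plus five library-drug doses (not always all listed) in √10 steps, and nuclei were counted on 4× images. Relative viability is the ratio of nuclei in treated wells to nuclei in vehicle wells, taken as the median of duplicate plates.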

Idelalisib + Navitoclax = compound: CC[C@H](Nc1ncnc2[nH]cnc12)c1nc2cccc(F)c2c(=O)n1-c1ccccc1 [Idelalisib] + CC1(C)CCC(c2ccc(Cl)cc2)=C(CN2CCN(c3ccc(C(=O)NS(=O)(=O)c4ccc(N[C@H](CCN5CCOCC5)CSc5ccccc5)c(S(=O)(=O)C(F)(F)F)c4)cc3)CC2)C1 [Navitoclax] (partner 0.5 µM)
Summary of the method: as §1

Pemetrexed + Foretinib = compound: Nc1nc2[nH]cc(CCc3ccc(C(=O)N[C@@H](CCC(=O)O)C(=O)O)cc3)c2c(=O)[nH]1 [Pemetrexed] + COc1cc2c(Oc3ccc(NC(=O)C4(C(=O)Nc5ccc(F)cc5)CC4)cc3F)ccnc2cc1OCCCN1CCOCC1 [Foretinib] (partner 0.25 µM)
Summary of the method: as §1

Pemetrexed + Linsitinib = compound: Nc1nc2[nH]cc(CCc3ccc(C(=O)N[C@@H](CCC(=O)O)C(=O)O)cc3)c2c(=O)[nH]1 [Pemetrexed] + C[C@]1(O)C[C@@H](c2nc(-c3ccc4ccc(-c5ccccc5)nc4c3)c3c(N)nccn32)C1 [Linsitinib] (partner 1 µM)
Summary of the method: as §1

Cell Line: UMC-11
- relative viability (Pemetrexed + Decitabine; first compound 0.002 µM): 0.849
- relative viability (Pemetrexed + Decitabine; first compound 0.006325 µM): 0.63
- relative viability (Pemetrexed + Decitabine; first compound 0.02 µM): 0.595
- relative viability (Pemetrexed + Decitabine; first compound 0.06325 µM): 0.58
- relative viability (Pemetrexed + Decitabine; first compound 0.2 µM): 0.7
- relative viability (Idelalisib + Navitoclax; first compound 0.04 µM): 0.366
- relative viability (Idelalisib + Navitoclax; first compound 0.1265 µM): 0.326
- relative viability (Idelalisib + Navitoclax; first compound 0.4 µM): 0.274
- relative viability (Idelalisib + Navitoclax; first compound 1.265 µM): 0.291
- relative viability (Idelalisib + Navitoclax; first compound 4 µM): 0.336
- relative viability (Pemetrexed + Foretinib; first compound 0.002 µM): 1.02
- relative viability (Pemetrexed + Foretinib; first compound 0.006325 µM): 0.943
- relative viability (Pemetrexed + Foretinib; first compound 0.02 µM): 1.14
- relative viability (Pemetrexed + Foretinib; first compound 0.06325 µM): 1.02
- relative viability (Pemetrexed + Foretinib; first compound 0.2 µM): 0.847
- relative viability (Pemetrexed + Linsitinib; first compound 0.002 µM): 0.836
- relative viability (Pemetrexed + Linsitinib; first compound 0.006325 µM): 1.03
- relative viability (Pemetrexed + Linsitinib; first compound 0.02 µM): 1.08
- relative viability (Pemetrexed + Linsitinib; first compound 0.06325 µM): 0.985
- relative viability (Pemetrexed + Linsitinib; first compound 0.2 µM): 0.903
